Patent publication US6699884B2, “Fluoro-substituted benzenesulfonyl compounds for the treatment of inflammation” (Pharmacia Corporation, priority 2001, dated 2004)

How the values were obtained:
Human COX-1 = molecular target: T1, Human COX-1 (Homo sapiens, UniProt P23219); assay: Fast assay for COX-1 activity (PGE2 formed, ELISA); type: biochemical; settings: recombinant enzyme in CHAPS-solubilized insect cell membranes; 10 min pre-incubation at 25° C.; 10 μM arachidonic acid
T1 construct: A 2.0 kb fragment containing the coding region of either human or murine COX-1 or human or murine COX-2; made in house; host or cells: SF9 insect cells (baculovirus, pVL1393)
Procedure: Recombinant baculoviruses were isolated by transfecting 4 μg of baculovirus transfer vector DNA into SF9 insect cells (2×10^8) along with 200 ng of linearized baculovirus plasmid DNA by the calcium phosphate method. See M. D. Summers and G. E. Smith, A Manual of Methods for Baculovirus Vectors and Insect Cell Culture Procedures, Texas Agric. Exp. Station Bull. […] Recombinant viruses were purified by three rounds of plaque purification and high titer (10^7-10^8 pfu/mL) stocks of virus were prepared. For large scale production, SF9 insect cells were infected in 10 liter fermentors (0.5×10^6/mL) with the recombinant baculovirus stock such that the multiplicity of infection was 0.1. After 72 hours the cells were centrifuged and the cell pellet homogenized in Tris/Sucrose (50 mM: 25%, pH 8.0) containing 1% 3-[(3-cholamidopropyl)dimethylammonio]-1-propanesulfonate (CHAPS). The homogenate was centrifuged at 10,000×G for 30 minutes, and the resultant supernatant was stored at −80° C. before being assayed for COX activity.
COX activity was assayed as PGE2 formed/μg protein/time using an ELISA to detect the prostaglandin released. CHAPS-solubilized insect cell membranes containing the appropriate COX enzyme were incubated in a potassium phosphate buffer (50 mM, pH 8.0) containing epinephrine, phenol, and heme with the addition of arachidonic acid (10 μM). Compounds were pre-incubated with the enzyme for 10-20 minutes prior to the addition of arachidonic acid. Any reaction between the arachidonic acid and the enzyme was stopped after ten minutes at 37° C. room temperature by transferring 40 μl of reaction mix into 160 μl ELISA buffer and 25 μM indomethacin. The PGE2 formed was measured by standard ELISA technology (Cayman Chemical).
COX activity was assayed as PGE2 formed/μg protein/time using an ELISA to detect the prostaglandin released. […] Compounds were pre-incubated with the enzyme for 10 minutes at 25° C. prior to the addition of arachidonic acid. Any reaction between the arachidonic acid and the enzyme was stopped after two minutes at 37° C./room temperature by transferring 40 μl of reaction mix into 160 μl ELISA buffer and 25 μM indomethacin. The PGE2 formed was measured by standard ELISA technology (Cayman Chemical).

Human COX-2 = molecular target: T2, Human COX-2 (Homo sapiens, UniProt P35354); assay: Fast assay for COX-2 activity (PGE2 formed, ELISA); type: biochemical; settings: recombinant enzyme in CHAPS-solubilized insect cell membranes; 10 min pre-incubation at 25° C.; 10 μM arachidonic acid
T2 construct: A 2.0 kb fragment containing the coding region of either human or murine COX-1 or human or murine COX-2; made in house; host or cells: SF9 insect cells (baculovirus, pVL1393)
T2 sequence (P35354 18-604): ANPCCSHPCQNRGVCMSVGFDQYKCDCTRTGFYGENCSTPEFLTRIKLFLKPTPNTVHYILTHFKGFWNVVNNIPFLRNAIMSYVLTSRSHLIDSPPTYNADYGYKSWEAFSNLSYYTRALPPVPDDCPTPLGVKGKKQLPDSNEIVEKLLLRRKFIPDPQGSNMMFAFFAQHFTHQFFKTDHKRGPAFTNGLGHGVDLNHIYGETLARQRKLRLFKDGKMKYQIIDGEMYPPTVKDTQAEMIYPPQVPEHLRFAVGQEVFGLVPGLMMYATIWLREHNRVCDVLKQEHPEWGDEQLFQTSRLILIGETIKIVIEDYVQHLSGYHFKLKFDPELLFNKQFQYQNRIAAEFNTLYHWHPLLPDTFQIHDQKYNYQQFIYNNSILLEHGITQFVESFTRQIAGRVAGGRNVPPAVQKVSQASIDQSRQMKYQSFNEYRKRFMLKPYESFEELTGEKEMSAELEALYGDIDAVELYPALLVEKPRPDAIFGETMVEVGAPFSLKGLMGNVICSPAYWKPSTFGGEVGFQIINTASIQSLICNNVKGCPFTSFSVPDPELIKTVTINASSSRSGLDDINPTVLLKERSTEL

T1 sequence (P23219 24-599): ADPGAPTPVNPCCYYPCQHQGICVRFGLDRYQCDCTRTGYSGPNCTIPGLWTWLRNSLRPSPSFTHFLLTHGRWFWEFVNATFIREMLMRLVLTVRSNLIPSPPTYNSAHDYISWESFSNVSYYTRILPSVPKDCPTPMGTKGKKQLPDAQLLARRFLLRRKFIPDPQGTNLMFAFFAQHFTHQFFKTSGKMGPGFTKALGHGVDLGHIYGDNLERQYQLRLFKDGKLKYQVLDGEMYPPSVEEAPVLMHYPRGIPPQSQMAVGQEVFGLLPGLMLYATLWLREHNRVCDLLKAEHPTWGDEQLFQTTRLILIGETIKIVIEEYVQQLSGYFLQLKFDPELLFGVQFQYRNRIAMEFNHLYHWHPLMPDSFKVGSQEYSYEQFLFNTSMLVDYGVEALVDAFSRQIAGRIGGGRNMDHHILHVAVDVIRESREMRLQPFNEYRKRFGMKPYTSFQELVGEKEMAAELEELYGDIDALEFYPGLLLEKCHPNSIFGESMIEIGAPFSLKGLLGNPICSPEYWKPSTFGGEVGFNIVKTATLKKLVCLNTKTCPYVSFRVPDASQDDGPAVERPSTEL

| IC50 (Human COX-1) [µM] | IC50 (Human COX-2) [µM] | Structure (SMILES) |
| --- | --- | --- |
| > 100 | 3.44 | CS(=O)(=O)c1c(F)cc(-c2cc(C(F)(F)F)nn2-c2ccc(F)cc2)cc1F [Example 1, 5-[3,5-difluoro-4-(methylsulfonyl)phenyl]-1-(4-fluorophenyl)-3-(trifluoromethyl)-1H-pyrazole] |
| > 100 | 0.55 | Cc1ccc(-n2nc(C(F)F)cc2-c2cc(F)c(S(C)(=O)=O)c(F)c2)cc1Cl [Example 2, 1-(3-chloro-4-methylphenyl)-3-(difluoromethyl)-5-[3,5-difluoro-4-(methylsulfonyl)phenyl]-1H-pyrazole] |
| > 100 | 0.3 | CS(=O)(=O)c1c(F)cc(-c2cc(C(F)(F)F)nn2-c2cccc(C(F)(F)F)c2)cc1F [Example 3, 5-[3,5-difluoro-4-(methylsulfonyl)phenyl]-3-(trifluoromethyl)-1-[3-(trifluoromethyl)phenyl]-1H-pyrazole] |
| > 100 | 0.1 | CS(=O)(=O)c1c(F)cc(-c2cc(C(F)(F)F)nn2-c2ccc(OC(F)(F)F)cc2)cc1F [Example 4, 5-[3,5-difluoro-4-(methylsulfonyl)phenyl]-1-[4-(trifluoromethoxy)phenyl]-3-(trifluoromethyl)-1H-pyrazole] |
| > 100 | – | CS(=O)(=O)c1c(F)cc(-c2cc(C(F)F)nn2C2CCCCC2)cc1F [Example 5, 1-cyclohexyl-3-(difluoromethyl)-5-[3,5-difluoro-4-(methylsulfonyl)phenyl]-1H-pyrazole] |
| > 100 | 0.09 | Cc1ccc(-n2nc(C(F)(F)F)cc2-c2cc(F)c(S(C)(=O)=O)c(F)c2)cc1Cl [Example 6, 1-(3-chloro-4-methylphenyl)-5-[3,5-difluoro-4-(methylsulfonyl)phenyl]-3-(trifluoromethyl)-1H-pyrazole] |
| 56.7 | 0.09 | CS(=O)(=O)c1cc(F)c(-c2cc(C(F)(F)F)nn2-c2ccc(Cl)cc2)cc1F [Example 7, 1-(4-chlorophenyl)-5-[2,5-difluoro-4-(methylsulfonyl)-phenyl]-3-(trifluoromethyl)-1H-pyrazole] |
| 14.8 | 0.25 | COc1ccc(-n2nc(C(F)(F)F)cc2-c2cc(F)c(S(C)(=O)=O)cc2F)cc1 [Example 8, 5-[2,5-difluoro-4-(methylsulfonyl)phenyl]-1-(4-methoxyphenyl)-3-(trifluoromethyl)-1H-pyrazole] |
| > 100 | – | Cc1onc(-c2ccccc2)c1-c1cc(F)c(S(C)(=O)=O)c(F)c1 [Example 14, 4-[3,5-difluoro-4-(methylsulfonyl)phenyl]-5-methyl-3-phenylisoxazole] |
| > 100 | 0.12 | Cc1onc(-c2ccccc2)c1-c1cc(F)c(S(N)(=O)=O)c(F)c1 [Example 15, 2,6-difluoro-4-(5-methyl-3-phenylisoxazol-4-yl)benzene-sulfonamide] |
